Experimental data from patent US20160106102A1, “KNOWN AND NEW HETEROCYCLIC COMPOUNDS AS PEST CONTROL AGENTS” (BAYER CROPSCIENCE AKTIENGESELLSCHAFT, priority 2013, published 2016).

system: Myzus persicae; assay: Myzus persicae - spray test; type: in vivo; conditions: Myzus persicae, foliar, 144 h; application rate of 500 g/ha; after 6 days; sprayed Chinese cabbage leaf discs infested by all stages; 100% = all aphids killed; read-out: efficacy in %
How it was run: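 Chinese cabbage leaf discs infested with all stages of green peach aphid sprayed with compound in acetone/DMF formulation with alkylaryl polyglycol ether emulsifier, diluted in emulsifier-containing water. Efficacy (% aphids killed) assessed after 6 days.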

Row | Compound | pest or weed control at 500 g/ha [%]
1 | Cc1cc(NC(=O)c2cccnc2)nn1C(=O)OC(C)(C)C [Compound I-1-18, tert-Butyl 5-methyl-3-[(pyridin-3-ylcarbonyl)amino]-1H-pyrazole-1-carboxylate] | 100

same assay, conditions: application rate of 500 g/ha; after 6 days; sprayed Chinese cabbage leaf discs infested by all stages; 100% = all aphids killed

Row | Compound | efficacy in % [%]
2 | Cc1cc(NC(=O)c2cccnc2)nn1Cc1ncccn1 [Compound I-1-1] | 90
3 | Cc1cc(NC(=O)c2cccnc2)nn1Cn1ccc(C(F)(F)F)n1 [Compound I-1-228] | 90
4 | Cc1cc(NC(=O)c2cccnc2)nn1C(=O)NCc1cccnc1 [Compound I-1-330] | 90
5 | Cc1cc(NC(=O)c2cccnc2)nn1-c1cccc(F)c1 [Compound I-1-202] | 90
6 | Cc1cc(NC(=O)c2ccc[n+]([O-])c2)nn1Cc1ncccn1 [Compound I-1-128] | 90
7 | Cc1cc(NC(=O)c2cccnc2)nn1Cc1nnc(C(C)(C)C)o1 [Compound I-1-281] | 90
8 | Cc1cc(NC(=O)c2cccnc2)nn1Cc1cccc(F)c1 [Compound I-1-60] | 100
9 | Cc1cc(NC(=O)c2cccnc2)nn1C(C)C#N (stereo not drawn) [Compound I-1-214] | 100
10 | Cn1ccc(NC(=O)c2cccnc2)n1 [Compound I-1-198] | 90
11 | Cc1cc(NC(=O)c2cccnc2)nn1C(=O)NC1CC1 [Compound I-1-312] | 90
12 | CCSCCn1nc(NC(=O)c2cccnc2)cc1C [Compound I-1-189] | 90
13 | CCn1nc(NC(=O)c2cccnc2)cc1C [Compound I-1-38] | 100
14 | Cc1cc(NC(=O)c2cccnc2)nn1Cc1cccnc1 [Compound I-1-15] | 90

system: Myzus persicae; assay: Myzus persicae - sachet test; type: in vivo; conditions: Myzus persicae; application rate of 6 ppm in nutrient medium; 100% = all animals killed; read-out: efficacy (kill in %)
How it was run: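 Active ingredient dissolved with 2% N-methylpyrrolidone and 2% diacetone alcohol, diluted in water, then pipetted into nutrient medium. Plate sealed and paired with a plate carrying green peach aphids. Kill in % scored after the set time (100% = all dead, 0% = none dead).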

Row | Compound | pest or weed control at 6 ppm [%]
15 | Cc1cc(NC(=O)c2cccnc2)nn1C(=O)OC(C)(C)C [Compound I-1-18, tert-Butyl 5-methyl-3-[(pyridin-3-ylcarbonyl)amino]-1H-pyrazole-1-carboxylate] | 100

same assay, conditions: Myzus persicae; application rate of 30 ppm in nutrient medium; 100% = all animals killed; read-out: efficacy (kill in %)

Row | Compound | pest or weed control at 30 ppm [%]
16 | Cc1cc(NC(=O)c2cccnc2)nn1C(=O)OC(C)(C)C [Compound I-1-18, tert-Butyl 5-methyl-3-[(pyridin-3-ylcarbonyl)amino]-1H-pyrazole-1-carboxylate] | 100

same assay, conditions: application rate of 6 ppm in nutrient medium; 100% = all animals killed

Row | Compound | efficacy (kill in %) [%]
17 | Cc1cc(NC(=O)c2cccnc2)nn1Cc1ncccn1 [Compound I-1-1] | 100
18 | Cc1cc(NC(=O)c2cccnc2)nn1Cn1ccc(C(F)(F)F)n1 [Compound I-1-228] | 100
19 | Cc1cc(NC(=O)c2cccnc2)nn1C(=O)NCc1cccnc1 [Compound I-1-330] | 100
20 | Cc1cc(NC(=O)c2cccnc2)nn1-c1cccc(F)c1 [Compound I-1-202] | 80
21 | Cc1cc(NC(=O)c2ccc[n+]([O-])c2)nn1Cc1ncccn1 [Compound I-1-128] | 100
22 | Cc1cc(NC(=O)c2cccnc2)nn1Cc1nnc(C(C)(C)C)o1 [Compound I-1-281] | 80
23 | Cc1cc(NC(=O)c2cccnc2)nn1Cc1cccc(F)c1 [Compound I-1-60] | 100
24 | Cc1cc(NC(=O)c2cccnc2)nn1C(C)C#N (stereo not drawn) [Compound I-1-214] | 100
25 | Cn1ccc(NC(=O)c2cccnc2)n1 [Compound I-1-198] | 100
26 | Cc1cc(NC(=O)c2cccnc2)nn1C(=O)NC1CC1 [Compound I-1-312] | 100
27 | CCSCCn1nc(NC(=O)c2cccnc2)cc1C [Compound I-1-189] | 100
28 | CCn1nc(NC(=O)c2cccnc2)cc1C [Compound I-1-38] | 100
29 | Cc1cc(NC(=O)c2cccnc2)nn1Cc1cccnc1 [Compound I-1-15] | 100

same assay, conditions: application rate of 30 ppm in nutrient medium; 100% = all animals killed

Row | Compound | efficacy (kill in %) [%]
30 | Cc1cc(NC(=O)c2cccnc2)nn1Cc1ncccn1 [Compound I-1-1] | 100
31 | Cc1cc(NC(=O)c2cccnc2)nn1Cn1ccc(C(F)(F)F)n1 [Compound I-1-228] | 100
32 | Cc1cc(NC(=O)c2cccnc2)nn1C(=O)NCc1cccnc1 [Compound I-1-330] | 100
33 | Cc1cc(NC(=O)c2cccnc2)nn1-c1cccc(F)c1 [Compound I-1-202] | 100
34 | Cc1cc(NC(=O)c2ccc[n+]([O-])c2)nn1Cc1ncccn1 [Compound I-1-128] | 100
35 | Cc1cc(NC(=O)c2cccnc2)nn1Cc1nnc(C(C)(C)C)o1 [Compound I-1-281] | 100
36 | Cc1cc(NC(=O)c2cccnc2)nn1Cc1cccc(F)c1 [Compound I-1-60] | 100
37 | Cc1cc(NC(=O)c2cccnc2)nn1C(C)C#N (stereo not drawn) [Compound I-1-214] | 100
38 | Cn1ccc(NC(=O)c2cccnc2)n1 [Compound I-1-198] | 100
39 | Cc1cc(NC(=O)c2cccnc2)nn1C(=O)NC1CC1 [Compound I-1-312] | 100
40 | CCSCCn1nc(NC(=O)c2cccnc2)cc1C [Compound I-1-189] | 100
41 | CCn1nc(NC(=O)c2cccnc2)cc1C [Compound I-1-38] | 100
42 | Cc1cc(NC(=O)c2cccnc2)nn1Cc1cccnc1 [Compound I-1-15] | 100

system: not listed separately; assay: log P determination by LC-MS in the acidic range; type: physicochemical; conditions: LC-MS in the acidic range
Text: The LC-MS determination in the acidic range is effected at pH 2.7 using 0.1% aqueous formic acid and acetonitrile (contains 0.1% formic acid) as eluents, linear gradient from 10% acetonitrile to 95% acetonitrile. Alternatively, the determination is effected in the acidic range at pH 2.3 using 0.1% aqueous phosphoric acid and acetonitrile as eluents; linear gradient from 10% acetonitrile to 95% acetonitrile.

Row | Compound | log P (acid)
43 | Cc1cc(NC(=O)c2cccnc2)nn1Cc1ncccn1 [Compound I-1-1] | 0.77
44 | Cc1cc(NC(=O)c2cccnc2)nn1Cn1ccc(C(F)(F)F)n1 [Compound I-1-228] | 1.86
45 | Cc1cc(NC(=O)c2cccnc2)nn1C(=O)NCc1cccnc1 [Compound I-1-330] | 0.64
46 | Cc1cc(NC(=O)c2cccnc2)nn1-c1cccc(F)c1 [Compound I-1-202] | 1.85
47 | Cc1cc(NC(=O)c2ccc[n+]([O-])c2)nn1Cc1ncccn1 [Compound I-1-128] | 0.55
48 | Cc1cc(NC(=O)c2cccnc2)nn1Cc1nnc(C(C)(C)C)o1 [Compound I-1-281] | 1.44
49 | Cc1cc(NC(=O)c2cccnc2)nn1Cc1cccc(F)c1 [Compound I-1-60] | 1.9
50 | Cc1cc(NC(=O)c2cccnc2)nn1C(C)C#N (stereo not drawn) [Compound I-1-214] | 0.92
51 | Cn1ccc(NC(=O)c2cccnc2)n1 [Compound I-1-198] | 0.22
52 | Cc1cc(NC(=O)c2cccnc2)nn1C(=O)NC1CC1 [Compound I-1-312] | 1.27
53 | CCSCCn1nc(NC(=O)c2cccnc2)cc1C [Compound I-1-189] | 1.53
54 | CCn1nc(NC(=O)c2cccnc2)cc1C [Compound I-1-38] | 0.93
55 | Cc1cc(NC(=O)c2cccnc2)nn1Cc1cccnc1 [Compound I-1-15] | 0.12

same assay, conditions: pH 2.7, LC-MS in the acidic range; read-out: log P (acid)

Row | Compound | chromatographic logP
56 | Cc1cc(NC(=O)c2cccnc2)nn1C(=O)OC(C)(C)C [Compound I-1-18, tert-Butyl 5-methyl-3-[(pyridin-3-ylcarbonyl)amino]-1H-pyrazole-1-carboxylate] | 2.04

same assay, conditions: pH 2.7, values given in the synthesis examples and NMR lists; read-out: HPLC-MS: log P

Row | Compound | chromatographic logP
57 | Cc1cc(NC(=O)c2cccnc2)nn1C(=O)OC(C)(C)C [Compound I-1-18, tert-Butyl 5-methyl-3-[(pyridin-3-ylcarbonyl)amino]-1H-pyrazole-1-carboxylate] | 2.04
